The nature of this assay: Antagonist activity at GluR1 expressed in Xenopus laevis oocytes assessed as inhibition of glutamate-induced current at -60mV holding potential by two-electrode voltage-clamp electrophysiology.

Regarding `CCCC(=O)N[C@@H](CC1CCCCC1)C(=O)NCCCNCCCCNCCCN` [(S)-N-(1-(3-(4-(3-aminopropylamino)butylamino)propylamino)-3-cyclohexyl-1-oxopropan-2-yl)butyramide], the IC50 is 32 nM.
`NCCCNCCCCNCCCNC(=O)[C@H](CC1CCCCC1)NC(=O)CC12CC3CC(CC(C3)C1)C2` [(S)-2-(2-Adamantan-1-yl-acetylamino)-N-{3-[4-(3-amino-propylamino)-butylamino]-propyl}-3-cyclohexyl-propionamide]: the 50% inhibitory concentration (IC50) came to 105 nM.
In the case of `NCCCNCCCCNCCCNC(=O)[C@H](CC1CCCCC1)NC(=O)C1CCCCC1` [(S)-N-(1-(3-(4-(3-aminopropylamino)butylamino)propylamino)-3-cyclohexyl-1-oxopropan-2-yl)cyclohexanecarboxamide] it was 21 nM.
For the compound `NCCCNCCCCNCCCNC(=O)[C@H](CC1CCCCC1)NC(=O)Cc1cccc2ccccc12` [(S)-N-(3-(4-(3-aminopropylamino)butylamino)propyl)-3-cyclohexyl-2-(2-(naphthalen-1-yl)acetamido)propanamide], the half-inhibitory concentration (IC50) stood at 41 nM.
With `NCCCNCCCCNCCCNC(=O)[C@H](CC1CCCCC1)NC(=O)c1ccc(-c2ccccc2)cc1` [(S)-N-(1-(3-(4-(3-aminopropylamino)butylamino)propylamino)-3-cyclohexyl-1-oxopropan-2-yl)biphenyl-4-carboxamide], the 50% inhibitory concentration (IC50) was determined as 87 nM.

The IC50 is the point on the concentration scale where inhibition reaches its midpoint.

For the origin of these results see BindingDB's records for doi:10.1021/jm100886h (University of Copenhagen, 2010).
